Where two headings read alike, the source gives them in different places.
Key:
[1] = Pharmacokinetic evaluation in mice; assay type: in vivo; details: mouse, plasma, ICR male mice
Method: Purpose: ICR male mice were selected as test animals. The LC-MS/MS method was used to quantitatively determine the drug concentration in the plasma of mice at different time points after intravenous injection or oral administration of the test compound to evaluate the pharmacokinetic characteristics of the test drug in mice.
Experimental materials: ICR mice (male, 15-35g, 5-10 weeks old, Shanghai Xipu-Bikai Experimental Animal Co., Ltd.)
The clear solution of the test compound was injected into ICR mice via the tail vein (without fasting, vehicle: 5% DMSO/10% Solutol/85% Saline) and administered to ICR mice by gavage (fasting for 10-14h). For intravenous administration, blood was collected from the submandibular venous plexus at 0.033, 0.083, 0.25, 0.5, 1, 2, 4, 8, and 24 hrs after administration, placed in an EDTA-K2 anticoagulant tube (Jiangsu Kangjian Medical Supplies Co., Ltd.), mixed, and centrifuged at 2-8° C., 6800 g for 6 minutes to obtain plasma; for oral gavage administration, blood was collected from the submandibular venous plexus at 0.083, 0.25, 0.5, 1, 2, 4, 6, 8, and 24 hrs after administration, placed in an EDTA-K2 anticoagulant tube (Jiangsu Kangjian Medical Supplies Co., Ltd.), mixed, and centrifuged at 2-8° C., 6800 g for 6 minutes to obtain plasma. The blood drug concentration was determined by LC-MS/MS, and the pharmacokinetic software Phoenix WinNonlinTM Version 7.0 (Pharsight, USA) was used to calculate the relevant pharmacokinetic parameters by the non-compartmental linear logarithmic trapezoidal method. The compounds of the present disclosure have good pharmacokinetic characteristics in mice, and the test results of representative compounds are shown in Table 8.

[2] = Liver microsome metabolic stability, mouse; assay type: in vitro ADME; details: mouse liver microsomes, 45 min incubation
Method: Purpose: This experiment investigates the metabolic stability of the compound in liver microsomes of different species such as humans, mice and rats, and the residual content of the test compound after incubation with liver microsomes of different species such as humans, mice and rats.
Preparation of 500 μM solution of target compound and positive control: 5 μL of each 10 mM stock solution was taken, added to 95 μL acetonitrile, and mixed for 30 s;
Preparation of 6 mM NADPH solution: 100 mM Stock aliquot liquid was diluted with Mg-Mg —K-Buffer.
2.1.1 Liver microsome solution: 18.75 μL of 20 mg/mL HLM, RLM, MLM, DLM, MOLM (final concentration: 0.5 mg/ml) were taken and placed them in each well of a 96-well plate;
2.1.2 1.5 μL of 500 μM solution of each compound was added respectively;
2.1.3 479.8 μL of phosphate buffer was taken, then added to each compound well, and mixed at 1000 rpm in an oscillating mixer for 10 s.
30 μL of the above samples were taken and aliquoted to a new 96-well plates respectively (including NADPH group, n=2, and no NADPH group at 0 and 45 min, n=1), marked as 0, 5, 15, 30 and 45 min; […]
The slope was calculated based on the LN value of the compound concentration percentage and time as the coordinate axis, and the residual content of the compound after incubation with liver microsomes was calculated based on the slope and formula. […]

clearance ([1]; 1 mg/kg, Dosage IV/PO 1/3 mg/kg): 19.2 mL/min/kg
Vd ([1]; 1 mg/kg, Dosage IV/PO 1/3 mg/kg, read-out: Vdss): 1.93 L/kg
Cmax ([1]; Dosage IV/PO 1/3 mg/kg): 1550 ng/mL
bioavailability ([1]; Dosage IV/PO 1/3 mg/kg): 137%
AUC(0-t) ([1]; IV 1 mg/kg, read-out: AUC0-last IV): 834 ng·h/mL
half-life ([1]; IV 1 mg/kg, read-out: T1/2 (IV, h) (converted)): 2.12 h
AUC(0-t) ([1]; PO 3 mg/kg, read-out: AUC0-last PO): 3440 ng·h/mL
LMS (m)(% rem, 45 min) [2]: 91.34 % rem
SMILES: CC(=O)N1CCOC[C@H]1CNc1nc2nc(-c3c(C)cc(C(F)(F)F)cc3O)ccc2o1 [Compound 111]

Reference: US20260234150A1, “COMPOUND FOR INHIBITING NLRP3, PREPARATION METHOD, AND USE” (DOVETREE MEDICINES UNUS, INC., priority 2023, published 2026)
